pIC50: −log10 of the molar value. Converted amounts (≈) assume the structure as drawn. “Also recorded” adds a separate entry of the source. Bridge positions count the residues as written; N and C are the ends. Square brackets hold non-standard residues; d marks the D form. Peptide text beside a SMILES is read from it. NMeF = CN[C@@H](Cc1ccccc1)C(=O)O
Columns and labels:
E. coli MsbA (EcMsbA) = target: T1, E. coli MsbA (EcMsbA) (Escherichia coli, UniProt P60752); assay: MsbA ATPase assay (Transcreener ADP2 FP); type: biochemical
T1 construct: FLAG (N); made in house; host or cells: E. coli (strain for the WT protein not restated)
Experimental: (§1) The ATPase activity of MsbA was measured using a Transcreener ADP2 FP Assay (BellBrook Labs). […] The final condition for the reaction was MsbA enzyme, 50 μM ATP in 50 mM Tris pH 7.5, 10 mM MgCl2, 1% glycerol, 0.1% bovine gamma globulin, 1 mM dithiothreitol (DTT), 0.007% Brij-35 and 0.5% dimethylsulfoxide (DMSO). The following concentrations were used for each MsbA variant: 5 nM of EcMsbA, EnMsbA, KpMsbA and 80 nM PaMsbA reconstituted in amphipol, 15 nM EcMsbA and EcMsbA-chim5 in LMNG detergent, 22 nM EcMsbA and 27 nM EcMsbA-12G7 complex in aDDM detergent. The enzyme reaction was incubated for 1 hour at room temperature, then quenched by adding the Transcreener Detection Buffer. The IC50 was determined by fitting the inhibition dose-response curve with a nonlinear four-parameter inhibition model (GraphPad Prism).

[1] = target: T2, EcMsbA-chim5 (MsbA-chimera5) (Escherichia coli, UniProt P60752, D53T/D54Y/D60K/DEL268-292/DEL57-57/F265A/G55I/I169L/INS266IAYAGNRVIHEDMRSGALIAFIAAL/INS66P/K49D/K58D/L171A/L263V/L51V/L52I/M159V/M67L/P68V/S164D/S62H/T59E/V63D/Y163E); assay: biochemical; type: biochemical
T2 construct: FLAG (N); made in house; host or cells: E. coli Rosetta 2 (DE3), pET-52b vector
Experimental: as §1

[2] = tested on: EcMsbA-chim5 (MsbA-chimera5); assay: biochemical; type: biochemical, Escherichia coli; details: ratio of ATPase IC50s
Experimental: as §1

[3] = target: Enterobacter cloacae MsbA (EnMsbA); assay: MsbA ATPase assay, amphipol-reconstituted homologue; type: biochemical; details: FIGS. 13A, 13C
Experimental: as §1

[4] = target: Klebsiella pneumoniae MsbA (KpMsbA); assay: as above; type: biochemical; details: FIGS. 13A, 13C
Experimental: as §1

[5] = target: T3, Pseudomonas aeruginosa MsbA (PaMsbA) (Pseudomonas aeruginosa, UniProt Q9HUG8); assay: as above; type: biochemical
T3 construct: FLAG; made in house; host or cells: not restated ('similarly expressed')
T3 sequence (Q9HUG8 1-603): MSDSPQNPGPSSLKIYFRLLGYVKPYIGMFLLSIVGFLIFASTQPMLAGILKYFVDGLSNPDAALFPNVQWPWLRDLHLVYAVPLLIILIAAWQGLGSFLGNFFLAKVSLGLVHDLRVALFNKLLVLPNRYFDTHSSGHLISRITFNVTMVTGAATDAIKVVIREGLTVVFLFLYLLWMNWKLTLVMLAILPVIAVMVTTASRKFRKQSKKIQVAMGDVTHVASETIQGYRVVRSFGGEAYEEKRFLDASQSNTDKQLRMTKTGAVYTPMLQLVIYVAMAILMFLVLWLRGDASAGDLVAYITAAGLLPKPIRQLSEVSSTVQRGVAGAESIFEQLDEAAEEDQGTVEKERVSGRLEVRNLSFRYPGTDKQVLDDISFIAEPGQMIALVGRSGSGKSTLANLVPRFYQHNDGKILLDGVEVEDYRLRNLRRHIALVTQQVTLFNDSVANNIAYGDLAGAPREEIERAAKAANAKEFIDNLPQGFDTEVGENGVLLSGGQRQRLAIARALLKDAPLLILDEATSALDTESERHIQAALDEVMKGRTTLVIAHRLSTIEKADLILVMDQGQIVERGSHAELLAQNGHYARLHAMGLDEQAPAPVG
Experimental: as §1

[6] = tested on: WT E. coli cells with an intact outer membrane (CFT073, UPEC WT); assay: Cellular IC50 determination (BacTiter-Glo, 6 hours); type: cell-based, Escherichia coli
Experimental: The cellular IC50's of various bacterial strains (Table 2) were determined.
200 nL aliquots of eight 2-fold dilutions of each compound were dispensed in duplicate into 384-well plates using an Echo Liquid Handler (Labcyte). Strains were grown in cation-adjusted Mueller Hinton Broth with 0.002% Tween overnight for 16 hours, washed with PBS, resuspended at OD600=1 in cation-adjusted Mueller Hinton Broth with 0.002% Tween and 10% glycerol, and frozen in […] aliquots. For each experiment, aliquots were thawed on ice and diluted 1:1000 into cation-adjusted Mueller Hinton Broth with 0.002% Tween. 10 μL cells/well were added to 384-well plates containing compound. Plates were incubated for 6 hours at 37° C., then 10 μL BacTiter-Glo reagent (Promega) was added to each well and luminescence was measured. IC50's were calculated using Genedata Screener software.

[7] = tested on: imp E. coli (lptD(imp4213)), E. coli MsbA; assay: Broth MIC assay; type: cell-based, Escherichia coli; details: cells containing the lptD(imp4213) allele
Experimental: Broth MICs were determined in cation-adjusted Mueller-Hinton broth with 0.002% Tween-80, as previously described (Ho et al., 2018).

[8] = tested on: E. coli CFT073 lptD(imp4213) cells; assay: Electron microscopy of inhibitor-exposed cells (membrane phenotype, LPS transport); type: cell-based, Escherichia coli
Text: In some embodiments, one or more functional assays may be performed to test the effect of molecules identified in a screen on the function of the parental ABC transporter. For example, in some cases, a molecule that binds to the periplasmic, extracellular, and/or luminal face of an ABC transporter acts as an inhibitor of the transporter. For example, if inhibition of an ABC transporter activity is expected to result in loss of cell viability or reduction of cell growth, for example, then a cell viability or growth assay can be conducted to determine if presence of the identified molecule affects these parameters. In some cases, other assays may be conducted to determine the impact of a molecule on the function of the transporter. In some cases, the transport of the transporter's substrate in the presence and absence of the molecule can be tested. […] Lack of LPS transport causes a stacking of inner and outer membranes at the surface of a bacterial cell that is clearly visible by EM. Appropriate functional assays for the ABC transporter in question are known or may be readily developed based on knowledge in the art.
Electron microscopy of E. coli CFT073 lptD(imp4213) or CFT073 lptD(imp4213) msbA-cond-ko cells rescued with pLMG18 plasmids expressing the indicated E. coli MsbA mutants was performed as described previously (Ho et al., 2018). […]

T1 sequence (P60752 whole entry): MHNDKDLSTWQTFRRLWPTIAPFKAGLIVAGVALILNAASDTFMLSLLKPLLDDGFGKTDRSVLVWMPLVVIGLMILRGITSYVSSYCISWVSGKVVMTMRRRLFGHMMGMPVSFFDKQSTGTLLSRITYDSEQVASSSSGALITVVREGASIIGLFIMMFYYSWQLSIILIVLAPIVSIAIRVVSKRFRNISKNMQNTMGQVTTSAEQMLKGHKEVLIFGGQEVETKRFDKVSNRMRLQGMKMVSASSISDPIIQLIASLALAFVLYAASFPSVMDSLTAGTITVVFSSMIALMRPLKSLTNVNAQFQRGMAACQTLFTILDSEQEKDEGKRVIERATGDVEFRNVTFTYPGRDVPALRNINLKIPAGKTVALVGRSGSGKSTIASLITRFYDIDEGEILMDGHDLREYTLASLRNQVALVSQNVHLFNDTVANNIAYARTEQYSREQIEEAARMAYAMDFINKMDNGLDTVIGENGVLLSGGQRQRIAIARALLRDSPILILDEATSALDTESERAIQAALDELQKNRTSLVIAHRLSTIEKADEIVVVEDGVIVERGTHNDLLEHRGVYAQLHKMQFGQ
T2 sequence (P60752 with tags, fused parts or gaps with the stated changes): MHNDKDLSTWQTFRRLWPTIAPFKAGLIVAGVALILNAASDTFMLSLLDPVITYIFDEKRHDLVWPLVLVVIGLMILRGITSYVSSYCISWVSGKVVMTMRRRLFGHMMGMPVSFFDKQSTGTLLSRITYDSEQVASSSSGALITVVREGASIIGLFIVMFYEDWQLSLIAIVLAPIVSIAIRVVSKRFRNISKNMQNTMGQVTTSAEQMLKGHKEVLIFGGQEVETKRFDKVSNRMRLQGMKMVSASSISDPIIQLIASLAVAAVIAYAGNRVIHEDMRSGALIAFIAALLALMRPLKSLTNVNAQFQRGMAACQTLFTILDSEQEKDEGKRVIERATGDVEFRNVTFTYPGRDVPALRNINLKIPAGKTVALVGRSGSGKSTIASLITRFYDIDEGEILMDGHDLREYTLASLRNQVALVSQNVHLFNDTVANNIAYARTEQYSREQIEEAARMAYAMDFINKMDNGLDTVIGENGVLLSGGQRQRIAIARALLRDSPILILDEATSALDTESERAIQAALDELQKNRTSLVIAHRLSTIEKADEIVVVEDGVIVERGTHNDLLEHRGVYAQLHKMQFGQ

CC(C)C[C@@H]1NC(=O)[C@H](Cc2c[nH]c3ccccc23)NC(=O)[C@H](Cc2c[nH]c3ccccc23)NC(=O)[C@H](Cc2ccccc2)NC(=O)CSC[C@@H](C(=O)NCC(N)=O)NC(=O)[C@H](C(C)C)NC(=O)[C@H](Cc2ccccc2)N(C)C(=O)[C@H](Cc2c[nH]c3ccccc23)NC(=O)[C@H](Cc2c[nH]c3ccccc23)NC(=O)[C@H](CO)NC(=O)[C@H](C(C)C)NC(=O)[C@H](CC(=O)O)NC(=O)[C@H](CC(=O)O)NC(=O)[C@H](Cc2c[nH]c3ccccc23)NC1=O [Compound G1118] ({CH2CO}-FWWLWDDVSWW[NMeF]VCG-NH2; thioether N-14)
pIC50 (E. coli MsbA (EcMsbA); IC50 for binding to MsbA in an imp E. coli strain, worded as binding to MsbA in imp E. coli strain (outer membrane permeable), FIG. 3F): 8.30 | pIC50 (E. coli MsbA (EcMsbA); half-maximum inhibitory concentration (IC50), ATPase activity of EcMsbA, purified WT EcMsbA, FIG. 3C): ~6.96 | pIC50 [1]: < 5.30 | lower potency on purified MsbA-chim5 versus EcMsbA [2]: > 30 fold | pIC50 [3]: ~6.62 | pIC50 [4]: ~6.92 | pIC50 [5]: 5.51 | activity on WT E. coli with an intact outer membrane [6]: no activity was observed | minimum inhibitory concentration (MIC) [7]: ~210 mg/L (≈ 101 µM) | LPS transport activity of E. coli MsbA [8]: inhibit LPS transport activity | inner membrane elaboration / membrane stacking phenotype ([8]; electron micrographs, imp cells treated with inhibitor): gave rise to the distinctive inner membrane elaboration phenotype; also recorded: mirrored the distinctive inner membrane elaboration phenotype

Source: US20240183860A1, “Chimeric ABC Transporters and Screening Methods” (Genentech, Inc., priority 2021, published 2024)
